Data published in ChEMBL document CHEMBL1201862, “PubChem BioAssay data set” (2004).
Active and inactive are the calls of the source. Cut-off read from the data, not from the text of the source, for most assays here: actives have a measured EC50 and inactives only a lower limit.

Tests used:
BJ [1] = assay: BJ-TERT-LT-ST fibroblast viability loss – cell-based, RAS-independent, luminescence, dose response (AID 1935); assay type: functional; conditions: Homo sapiens;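 note: BJ fibroblasts immortalized with TERT plus LT and ST oncogenes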
BJ [2] = assay: cells; assay type: functional, cell-based; conditions: Homo sapiens
[3] = DRD fibroblast viability loss – cell-based, non-viral oncogenic, luminescence, dose response (AID 1934); assay type: functional; conditions: Homo sapiens
BJ [4] = assay: BJ-TERT fibroblast viability loss – cell-based, RAS-independent, luminescence, dose response (AID 1933); assay type: functional; conditions: Homo sapiens
Vero = assay: cells; assay type: functional; conditions: Chlorocebus sabaeus
[5] = biological target: T1, Polyadenylate-binding protein 1 (Homo sapiens, UniProt P11940); assay: MLLE domain peptide-binding blockers, IC50 – biochemical, fluorescence polarization, FITC-PAM2 peptide, dose response (AID 602259); assay type: functional; conditions: read-out: IC50_Mean
[6] = biological target: T1, Polyadenylate-binding protein 1; assay: MLLE binding blockers, Cy5 peptide tracer – biochemical, fluorescence polarization, Cy5-PAM2 peptide, secondary, miRNA deadenylation inhibitor project, dose response (AID 602260); assay type: functional; conditions: read-out: IC50_Mean
[7] = biological target: FAD-linked sulfhydryl oxidase ALR (Homo sapiens, UniProt P55789); assay: ALR-catalysed DTT oxidation blockers – biochemical, H2O2 detection, luminescence, cherry-pick, dose response (AID 493248)
[8] = biological target: T2, Calpain-2 catalytic subunit (Sus scrofa, UniProt P43367); assay: m-calpain protease blockers, concentration series – biochemical, fluorogenic peptide substrate, dose response (AID 1420); assay type: functional
T2 sequence (P43367 whole entry): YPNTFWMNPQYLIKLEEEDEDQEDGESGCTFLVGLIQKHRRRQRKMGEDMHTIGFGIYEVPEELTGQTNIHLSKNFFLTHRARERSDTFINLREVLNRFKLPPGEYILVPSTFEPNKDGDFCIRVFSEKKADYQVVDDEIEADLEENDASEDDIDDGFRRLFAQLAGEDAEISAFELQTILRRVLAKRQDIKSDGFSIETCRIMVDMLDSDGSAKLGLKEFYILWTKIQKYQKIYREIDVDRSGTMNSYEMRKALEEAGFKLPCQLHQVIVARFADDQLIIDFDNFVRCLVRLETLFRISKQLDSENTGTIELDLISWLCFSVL

[9] = Trypanosoma cruzi growth suppression in host cells – NIH3T3 host cells, beta-gal luminescence, confirmation (AID 2044); assay type: functional, cell-based;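 note: intracellular parasites grown in NIH/3T3 mouse fibroblasts as host cells; luminescent beta-galactosidase reporter signal from transgenic T. cruzi replicating inside host cells; inhibitors lower the luminescence signal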
[10] = NIH3T3 cell viability loss – ATP luminescence, mouse fibroblasts, counter-screen, dose response (AID 2010); assay type: functional, cell-based;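 note: cells exposed to compound for about 90 hours before reading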
Protein RecA = biological target: T3, Protein RecA (Mycobacterium tuberculosis, UniProt P9WHJ3); assay: Fluorescence Cell-Free Homogeneous Dose Retest to Identify Inhibitors of RecA-Intein Splicing Activity. [Related pubchem assays (depositor defined):AID2097, AID2223, AID489010, AID492950]; assay type: functional
T3 sequence (P9WHJ3 whole entry): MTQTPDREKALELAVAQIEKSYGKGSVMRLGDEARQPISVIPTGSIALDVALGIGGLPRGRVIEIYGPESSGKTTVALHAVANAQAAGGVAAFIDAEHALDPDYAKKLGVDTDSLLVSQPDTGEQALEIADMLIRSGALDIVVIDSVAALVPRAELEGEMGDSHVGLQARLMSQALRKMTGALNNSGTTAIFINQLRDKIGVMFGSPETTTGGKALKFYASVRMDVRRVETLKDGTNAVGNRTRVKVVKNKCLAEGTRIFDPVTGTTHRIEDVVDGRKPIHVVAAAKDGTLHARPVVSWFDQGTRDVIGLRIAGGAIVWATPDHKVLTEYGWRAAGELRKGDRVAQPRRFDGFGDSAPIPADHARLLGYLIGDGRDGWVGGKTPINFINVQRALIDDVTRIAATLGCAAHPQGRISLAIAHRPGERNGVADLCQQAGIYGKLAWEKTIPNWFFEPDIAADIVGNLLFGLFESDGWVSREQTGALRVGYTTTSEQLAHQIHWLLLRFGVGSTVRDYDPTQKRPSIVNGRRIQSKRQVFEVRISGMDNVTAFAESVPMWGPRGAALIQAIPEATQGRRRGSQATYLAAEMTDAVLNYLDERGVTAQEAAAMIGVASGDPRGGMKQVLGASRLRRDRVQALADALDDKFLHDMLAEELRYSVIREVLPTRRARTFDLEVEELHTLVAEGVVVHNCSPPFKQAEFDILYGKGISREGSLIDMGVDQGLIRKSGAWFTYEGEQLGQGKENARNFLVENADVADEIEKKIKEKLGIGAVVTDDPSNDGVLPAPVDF

[11] = biological target: T4, Replicative DNA helicase DnaB (Mycobacterium tuberculosis, UniProt P9WMR3); assay: DnaB intein splicing inhibitors, dose response, biochemical, cell-free fluorescence (AID 449749); assay type: functional
T4 sequence (P9WMR3 whole entry): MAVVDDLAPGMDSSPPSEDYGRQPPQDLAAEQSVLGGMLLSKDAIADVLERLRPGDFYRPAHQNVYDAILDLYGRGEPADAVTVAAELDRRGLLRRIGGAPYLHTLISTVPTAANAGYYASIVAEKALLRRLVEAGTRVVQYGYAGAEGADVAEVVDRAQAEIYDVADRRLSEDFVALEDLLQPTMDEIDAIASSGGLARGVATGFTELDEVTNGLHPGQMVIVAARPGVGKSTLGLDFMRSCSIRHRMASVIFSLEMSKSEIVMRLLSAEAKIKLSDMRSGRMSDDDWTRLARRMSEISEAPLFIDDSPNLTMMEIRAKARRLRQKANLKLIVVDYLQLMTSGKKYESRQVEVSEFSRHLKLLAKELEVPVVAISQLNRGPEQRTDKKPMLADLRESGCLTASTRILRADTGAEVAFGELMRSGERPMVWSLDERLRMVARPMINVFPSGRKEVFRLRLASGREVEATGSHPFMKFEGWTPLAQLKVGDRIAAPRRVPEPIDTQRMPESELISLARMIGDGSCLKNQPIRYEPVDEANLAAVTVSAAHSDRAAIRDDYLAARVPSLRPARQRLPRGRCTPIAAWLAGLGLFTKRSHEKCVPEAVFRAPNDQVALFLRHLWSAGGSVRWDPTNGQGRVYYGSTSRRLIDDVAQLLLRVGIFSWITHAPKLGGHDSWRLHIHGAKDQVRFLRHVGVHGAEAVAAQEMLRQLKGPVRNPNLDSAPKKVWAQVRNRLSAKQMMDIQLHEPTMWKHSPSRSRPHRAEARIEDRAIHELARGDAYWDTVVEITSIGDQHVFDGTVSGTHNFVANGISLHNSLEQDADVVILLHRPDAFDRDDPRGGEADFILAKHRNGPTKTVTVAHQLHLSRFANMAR

[12] = viability of HCT116 lacking mutant beta-catenin – cell-based, human colon tumor, dose response (AID 1045); assay type: functional;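 note: HCT116 colon tumor cells with beta catenin knocked out; cells exposed to compound for 60 hours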
[13] = tested on: Streptococcus sp. 'group A'; assay: Streptococcus pyogenes SK(-)GAS viability under kanamycin – luminescence, BacTiterGlo, confirmation, counter-screen for streptokinase expression inhibitor project, dose response (AID 1900); assay type: functional, organism-based
Streptococcus = assay: GAS UMAA2166 growth inhibition – luminescence, BacTiterGlo, counter-screen for streptokinase expression inhibitor project, dose response (AID 1915); assay type: functional, organism-based;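 note: potency for reduction of bacterial viability or growth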
[14] = viability of PTEN-deleted HCT116 cells – cell-based, HCT116 PTEN knockout, dose response (AID 1047); assay type: functional;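 note: HCT116 colon tumor cells with PTEN knocked out; cells exposed to compound for 60 hours before readout; potency for loss of cell viability measured by luminescence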
[15] = Luminescence Cell-Based Dose Confirmation HTS to Identify Activators of 5'UTR Stem-Loop Driven Alpha-Synuclein mRNA Translation in H4 Neuroglioblastoma Cells. [Related pubchem assays: 1829 (Project Summary), 1814 (Primary HTS)]; assay type: functional
[16] = Luminescence Cell-Based Dose Response HTS to Identify Activators of Luciferase Translation or Activity in H4 […] Cells. [Related pubchem assays: 1829 (Project Summary), 1814 (Primary HTS)]; assay type: functional
H4 = assay: Luminescence Cell-Based Dose Response HTS to Identify Activators of 5'UTR Stem-Loop Driven Prion Protein mRNA Translation in H4 Neuroglioblastoma Cells. [Related pubchem assays: 1829 (Project Summary), 1814 (Primary HTS)]; assay type: functional; conditions: Homo sapiens

T1 sequence (P11940 whole entry, the tested form may be a part): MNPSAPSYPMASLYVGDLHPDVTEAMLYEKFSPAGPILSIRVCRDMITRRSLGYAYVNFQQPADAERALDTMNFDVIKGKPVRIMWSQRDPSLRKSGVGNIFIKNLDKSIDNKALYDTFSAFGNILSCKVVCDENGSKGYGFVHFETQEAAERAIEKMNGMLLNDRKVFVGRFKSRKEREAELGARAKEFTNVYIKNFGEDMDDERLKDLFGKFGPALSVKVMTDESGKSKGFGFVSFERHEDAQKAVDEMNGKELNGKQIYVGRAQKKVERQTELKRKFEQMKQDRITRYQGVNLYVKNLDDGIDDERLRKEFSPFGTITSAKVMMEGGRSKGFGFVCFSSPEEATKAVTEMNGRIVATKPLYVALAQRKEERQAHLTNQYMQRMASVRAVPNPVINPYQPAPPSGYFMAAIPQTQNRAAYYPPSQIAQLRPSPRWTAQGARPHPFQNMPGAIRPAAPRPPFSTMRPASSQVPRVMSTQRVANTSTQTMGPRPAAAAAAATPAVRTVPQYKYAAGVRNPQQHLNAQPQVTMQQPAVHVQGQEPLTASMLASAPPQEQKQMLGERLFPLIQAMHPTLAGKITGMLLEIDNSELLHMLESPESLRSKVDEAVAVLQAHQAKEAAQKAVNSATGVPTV
Sequence of FAD-linked sulfhydryl oxidase ALR (P55789 whole entry): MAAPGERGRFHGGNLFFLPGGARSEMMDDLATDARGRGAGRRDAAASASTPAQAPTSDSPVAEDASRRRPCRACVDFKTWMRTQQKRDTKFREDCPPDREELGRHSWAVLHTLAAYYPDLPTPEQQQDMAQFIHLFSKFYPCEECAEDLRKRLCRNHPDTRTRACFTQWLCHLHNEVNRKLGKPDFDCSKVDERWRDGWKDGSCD

## CC1=Nc2cc(C(=O)NCCCOC(C)C)ccc2Sc2ccccc21
BJ [1]
  EC50: > 150 µM (inconclusive)
BJ [2]
  EC50: 57.5 µM (active)
[3]
  EC50: 18.6 µM (active)
BJ [4]
  EC50: 15.4 µM (active)

## Cc1ccc(S(=O)(=O)N2C[C@H]3n4c(=O)ccc(=O)n4C[C@H](OC(=O)NCC4CCCCC4)[C@@]3(O)C2)cc1
Vero
  CC50: > 25 µM (active)

## C=COC(=O)NC1CCc2cc(OC)c(OC)c(OC)c2-c2ccc(SC)c(=O)cc21 (stereo not drawn)
Vero
  CC50: < 0.05 µM (active)

## Cc1ccc2ncccc2c1NC(=S)NC(=O)c1ccccc1
[5]
  IC50: > 66 µM (inactive)
[6]
  IC50: > 66 µM (inactive)

## CCC(CC)c1nnc(NC(=O)CC(C)c2ccccc2)s1 (stereo not drawn)
BJ [1]
  EC50: > 75 µM (inconclusive)
BJ [2]
  EC50: > 150 µM (not active)
[3]
  EC50: > 150 µM (not active)
BJ [4]
  EC50: > 150 µM (not active)

## CC(C)(C)c1ccc(C(=O)NC(=S)Nc2ccc(N3CCOCC3)cc2)cc1
BJ [1]
  EC50: > 150 µM (not active)
BJ [2]
  EC50: 148 µM (inconclusive)
[3]
  EC50: > 150 µM (not active)
BJ [4]
  EC50: 18.2 µM (active)

## O=Cc1[nH]c2ccccc2c1N(C(=O)CCl)c1ccc([N+](=O)[O-])cc1
BJ [1]
  EC50: 4.03 µM (active)
BJ [2]
  EC50: 7.89 µM (active)
[3]
  EC50: 5.75 µM (inconclusive)
BJ [4]
  EC50: 5.65 µM (inconclusive)

## COc1cccc(/C=C2\SC(=S)N(CCC(=O)N3CCCCC3CCO)C2=O)c1 (stereo not drawn)
Vero
  CC50: 15.9 µM (active)

## O=C(Nc1ccc(Oc2ccccc2)nc1)C1CCCCN1Cc1ccco1 (stereo not drawn)
BJ [1]
  EC50: 5.04 µM (inconclusive)
BJ [2]
  EC50: 35.3 µM (active)
[3]
  EC50: 17.3 µM (inconclusive)
BJ [4]
  EC50: 8.7 µM (inconclusive)

## COc1cc(C(=O)NC2=NCCS2)ccc1OCc1c(C)noc1C
[5]
  IC50: > 66 µM (inactive)
[6]
  IC50: > 66 µM (inactive)

## CC(=O)O[C@H]1C[C@]2(O)[C@@H]3CC[C@@H]4C[C@@H](O)CC[C@]4(C)[C@H]3CC[C@]2(C)[C@H]1C1=CC(=O)OC1
Vero
  CC50: 0.46 µM (active)

## COc1ccc(C(=O)/C=C/c2ccccc2)c(OC)c1
Vero
  CC50: 12.4 µM (active)

## Cc1nc(NC(=O)c2ccco2)sc1C(=O)O
BJ [1]
  EC50: > 150 µM (inconclusive)
BJ [2]
  EC50: 4.14 µM (active)
[3]
  EC50: 10.3 µM (active)
BJ [4]
  EC50: 7.4 µM (active)

## CCCCCOc1ccc(/C(C)=N/NC2=NCCN2)cc1
Vero
  CC50: > 25 µM (active)

## CC(=O)Nc1ccc(C2=NN(C)/C(=N/Cc3ccccc3)SC2)cc1
[7]
  AC50: 3.9 µM (active)
[8]
  IC50: 8.93 µM (not active)

## O=C(Nc1ccccc1N1CCCCC1)c1ccc(-c2ccc(Cl)cc2)o1
BJ [1]
  EC50: 46.9 µM (inconclusive)
BJ [2]
  EC50: 40.9 µM (inconclusive)
[3]
  EC50: 2.91 µM (active)
BJ [4]
  EC50: 3.11 µM (inconclusive)

## CC1(C)Cc2c(c(-c3ccco3)[nH]c(=O)c2C#N)CS1
[5]
  IC50: 26 µM (inactive)
[6]
  IC50: > 66 µM (inactive)

## Cc1ccccc1SCC(=O)NC1CCOC1=O (stereo not drawn)
[5]
  IC50: > 66 µM (inactive)
[6]
  IC50: > 66 µM (inactive)

## COc1ccc(CNC(=O)CN(Cc2ccc(C)cc2)C(=O)c2csnn2)cc1
[5]
  IC50: > 66 µM (inactive)
[6]
  IC50: > 66 µM (inactive)

## CN(C)c1n/c(=N/c2cccc(Cl)c2)ss1
Vero
  CC50: 21.6 µM (active)

## O=C(CCl)N(CCc1ccccc1)CCc1ccccc1
[9]
  EC50: 2.07 µM (active)
[10]
  EC50: > 30 µM (not active)
Protein RecA
  EC50: 2.36 µM (active)
Vero
  CC50: 8.89 µM (active)
[11]
  AC50: 10 µM (active)

## O=C(CSC1=Nc2ccccc2C2=NC(CC(=O)NCc3ccco3)C(=O)N12)NCc1ccco1 (stereo not drawn)
[5]
  IC50: > 66 µM (inactive)
[6]
  IC50: > 66 µM (inactive)

## Cc1cccc(-c2nnc(NC(=O)c3ccc(Cl)cc3)o2)c1
[12]
  EC50: 17.4 µM (active)
[13]
  EC50: 0.099 µM (active)
Streptococcus
  EC50: 0.81 µM (active)
Vero
  CC50: > 25 µM (active)
[14]
  EC50: 23.1 µM (active)

## CCCCCC(=O)Nc1ccc(N2CCN(CC)CC2)c(Cl)c1
[15]
  EC50: 15.5 µM (active)
[16]
  EC50: 5.11 µM (active)
[8]
  IC50: 18.8 µM (not active)
H4
  EC50: 5.08 µM (active)

## CCOc1ccccc1CNC(=O)c1cn(C)c(=O)c2c1c1ccccc1n2C
Vero
  CC50: > 25 µM (active)

## CCn1c(COc2ccc(Cl)cc2)nnc1SC1CCc2ccccc2C1=O (stereo not drawn)
Protein RecA
  EC50: 25.4 µM (active)
[8]
  IC50: 7.24 µM (not active)
[11]
  AC50: 9.31 µM (active)

## O=C1Cc2c(-c3ccccc3)cc(-c3cccc(Cl)c3)nc2-c2ccccc2N1
Vero
  CC50: 11.4 µM (active)
